Test results published in PubChem BioAssay AID179 (DTP/NCI, 2004).
Values joined by “and” are separate entries in the source; they are usually repeats but may differ in a detail not shown here. Equal values may be shown once. Active and inactive are the calls of the source.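 Rule for the calls: active = compounds giving half or more protection of infected cells from virus-caused growth loss, again on retest; inactive = the rest.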 Where a SMILES comes first, the peptide text is derived from it. [ ]: non-standard residue; d: D form. The star is where a group is joined. ξ: configuration not given here. Myristoyl = CCCCCCCCCCCCCC(=O)*; Boc = CC(C)(C)OC(=O)*; ξV = CC(C)C(N)C(=O)O; OBn = c1ccc(CO*)cc1

System: CEM cells HIV-1 protection, formazan growth assay
Test: NCI AIDS Antiviral Assay
Details: for IC50: measured here: growth of uninfected CEM cells
Experimental: The ability of compounds to protect human CEM cells from HIV-1 infection is measured as a screen for new compounds capable of inhibiting the HIV virus. Five concentrations of drug were tested on uninfected and infected cells and cell growth was measured using a soluble formazan assay. […] Compounds that provided at least 50% protection were retested. Compounds that provided at least 50% protection on retest were listed as moderately active. Compounds that reproducibly provided 100% protection were listed as confirmed active. […] Note that the inability to provide protection could be due to toxicity.

| Structure (SMILES) | EC50 | IC50 | outcome |
| --- | --- | --- | --- |
| CCOC(=O)C(NC(=O)CC)(Nc1ccc(S(=O)(=O)Nc2nc(C)cc(C)n2)cc1)C(F)(F)F (configuration not stated) | > 200 µM | > 200 µM | – |
| CC12CCC(=O)C=C1C=CC1C2CCC2(C)C1CCC21CCC(=O)O1 (configuration not stated) | > 200 µM | 83.2 µM | – |
| O=C1NC2NC(=O)NC2N1 (configuration not stated) | > 479 µM | > 479 µM | – |
| COc1ccc(/C(C)=N/NC(=S)N(C)C)c(O)c1 | > 200 µM | 4.79 µM | – |
| N#CC(C#N)=Cn1c(=S)[nH]c2ccccc21 | > 200 µM | > 200 µM | – |
| Cn1c(=O)[nH]c(N2CCCC2)c(C#N)c1=S | > 200 µM | > 200 µM | – |
| CC(C)(C)c1cc(Nc2ccc([N+](=O)[O-])cc2[N+](=O)[O-])cc(C(C)(C)C)c1O | > 13.5 µM | > 13.5 µM | – |
| CCCCCCCCCCCCCCCCCC(=O)NCCCNCCCNC(=O)CCCCCCCCCCCCCCCCC | > 12.6 µM | > 12.6 µM | – |
| CCC[CH2][Sn]([CH2]CCC)([O]C(=O)c1cccc(F)c1F)[O][Sn]([CH2]CCC)([CH2]CCC)[O]C(=O)c1cccc(F)c1F | > 6.61 µM | 4.79 µM | – |
| Cc1ccc(SSc2ccc(C)cc2[N+](=O)[O-])c([N+](=O)[O-])c1 | > 200 µM | 9.33 µM and 14.5 µM | – |
| COc1ccc(C[C@H]2COC(=O)[C@@H]2Cc2cc(OC)c(OC)c(OC)c2)cc1OC | > 200 µM | 115 µM | – |
| COc1ccc(/C=C2\CCS(=O)(=O)c3ccccc3C2=O)cc1 | > 200 µM | 16.6 µM | – |
| CC1OC(OC2C(CO)OC(O[C@H]3CC[C@@]4(C)C(=CC[C@H]5[C@@H]6C[C@@H]7O[C@]8(CC[C@@H](C)CN8)[C@@H](C)[C@@H]7[C@@]6(C)CC[C@@H]54)C3)C(O)C2O)C(O)C(O)C1O (some centres not stated) | – | – | inactive |
| CCCCCCCCCCCCOC1OC(COC(C)=O)C(OC(C)=O)C(OC(C)=O)C1OC(C)=O (configuration not stated) (tested in a mixture with another compound) | > 38 µM | 24 µM | – |
| Cc1cccc(C)c1NC(=O)C(=O)Nn1c(NN)nc2ccccc2c1=O | > 676 µM | 525 µM | – |
| CCC1C(NC(=O)OC)C(=O)N1[C@@H](C)c1ccccc1 (some centres not stated) | > 200 µM | > 200 µM | – |
| CC1CC/C(=C\c2ccc(Cl)cc2)C2OC(N)=C(C#N)C(c3ccc(Cl)cc3)=C12 (configuration not stated) | – | – | inactive |
| O=C(OCCNC(=O)N1CCOCC1)OCCNC(=O)N1CCOCC1 | > 200 µM | > 200 µM | – |
| CSc1nc(Nc2cccc(C(F)(F)F)c2)c2c(N)nn(C)c2n1 | > 200 µM | > 200 µM | – |
| Cc1ccc2c(c1)[nH]c(=S)n2C=C1C(=O)CC(C)(C)CC1=O | > 200 µM | > 200 µM | – |
| CSc1ccc(/C=C2\C=Cc3ccccc32)cc1 | > 28.8 µM | > 28.8 µM | – |
| COC(=N)c1ncn(Cc2ccccc2)c1N | > 200 µM | 158 µM | – |
| CCC(C)[C@H](NC(=O)c1ccccc1S)C(=O)O (some centres not stated) | 8.51 µM | 110 µM | – |
| CN(CCN1C(=O)c2cccc3cccc(c23)C1=O)CCN1C(=O)c2cccc3cccc(c23)C1=O | > 26.3 µM | 9.12 µM | – |
| CC1CC2(S(=O)(=O)c3ccccc3)ON1CC2S(=O)(=O)c1ccccc1 (configuration not stated) | – | – | inactive |
| Cc1nc(C)c(N2CCN([N+](=O)[O-])CC2)c(=O)[nH]1 | > 200 µM | > 200 µM | – |

| Structure (SMILES) | EC50 | IC50 | outcome |
| --- | --- | --- | --- |
| COc1ccc2c(c[n+](C)c3c4cc5c(cc4ccc23)OCO5)c1OC | > 3.24 µM | 0.372 µM | – |
| CC(=O)NNC(=S)N/C=C(\C#N)c1nc2ccccc2s1 | > 200 µM | > 200 µM | – |
| CN(CCO)CCC1COc2ccccc2O1 (configuration not stated) | – | – | inactive |
| C=CCNC1=C2C[C@@H](C)C[C@@H](OC)[C@@H](OC(=O)CCCN)[C@H](C)/C=C(\C)[C@@H](OC(N)=O)[C@H](OC)/C=C\C=C(/C)C(=O)NC(=CC1=O)C2=O | > 200 µM | 5.5 µM | – |
| CCC1CCc2c(c(=O)oc3c2cc(OC)c2cccc(OC)c23)C1 (configuration not stated) | > 110 µM | 87.1 µM | – |
| COc1ccc(-c2nc(N3CCCC3)no2)cc1 | > 200 µM | 195 µM | – |
| COC(=O)/C=C(/CNC(=O)OCc1ccccc1)c1ccccc1 | – | – | inactive |
| Cc1ccc(N=Nc2ccc(O)c(CN(C)C)c2)cc1 | > 200 µM | 21.9 µM | – |
| CC(C)CCCC(C)[C@H]1CC[C@H]2[C@@H]3CC[C@H]4C[C@@H](CCC=C(c5cc(Cl)c(OCc6cccc([N+](=O)[O-])c6)c(C(=O)O)c5)c5cc(Cl)c(OCc6cccc([N+](=O)[O-])c6)c(C(=O)O)c5)CC[C@]4(C)[C@H]3CC[C@]12C (some centres not stated) | 95.5 µM | > 200 µM | – |
| O=[p+]1c2ccccc2[nH]c2ccccc21 | > 200 µM | 56.2 µM | – |
| COc1nc(N)c(C#N)c(C#N)c1C#N | > 200 µM | > 200 µM | – |
| COc1ccc(Nc2nc3c(N)cc(C(F)(F)F)cc3nc2-c2ccccc2)cc1 | > 12.6 µM | > 12.6 µM | – |
| COc1cc2c(c(OC)c1OC)-c1ccc(SC)c(=O)cc1C(NC=O)CC2 (configuration not stated) | > 0.002 µM | 0.0011 µM | – |
| CC1(c2ccc[n+](Cc3ccccc3)c2)OCCO1 | > 398 µM | 380 µM | – |
| CN1C(N)=NC(=O)/C1=C/c1ccccc1 | > 200 µM | 115 µM | – |
| CN(C)CC1CCC/C(=C\c2ccc(Cl)cc2)C1=O (configuration not stated) | > 20 µM | 0.977 µM | – |
| C=CCc1cc2c(cc1COCOCCOCCOCCCC)OCO2 | > 200 µM | 44.7 µM | – |
| CC(Oc1ccc(Oc2cnc3ccc(Cl)cc3n2)cc1)C(=O)O (configuration not stated) | > 141 µM | 17.4 µM | – |
| Cc1cc2c(cc1C)[n+](=O)cc(C(=O)C/C(=N/NC(=S)NN)C(=O)Nc1cccc(C(F)(F)F)c1)n2[O-] | > 126 µM | > 126 µM | – |
| Cc1cc(C)nc(NC(N)=NCCc2ccccc2)n1 | > 200 µM | 3.31 µM | – |
| O=C(Nc1cccc([N+](=O)[O-])c1)/C(=N\NC(=O)c1ccncc1)c1nc2ccc([N+](=O)[O-])cc2[nH]c1=O | > 135 µM | 47.9 µM | – |
| O=C1CNCCCN2CCN(CCCNCC(=O)Nc3ccc(cc3)S(=O)(=O)c3ccc(cc3)NC(=O)CNCCCN3CCN(CCCNCC(=O)Nc4ccc(cc4)S(=O)(=O)c4ccc(cc4)N1)CC3)CC2 | > 50.1 µM | > 50.1 µM | – |
| CN(C)CC(/C(Cc1ccccc1)=N\NC(=S)NN)c1ccccc1 (configuration not stated) | > 35.5 µM | > 35.5 µM | – |
| COC12C=CC(CC1)c1c2c(O)c2nc(C)c(C)nc2c1O (configuration not stated) | > 200 µM | 3.16 µM | – |
| O=C1NN=C(c2ccc([N+](=O)[O-])cc2)C1n1nc(-c2ccccc2)c2ccccc2c1=O (configuration not stated) | > 61.7 µM | > 61.7 µM | – |
| C=C1CC(C)(Cn2c(N)nc3nc[nH]c3c2=O)OC1=O (configuration not stated) | > 200 µM | 117 µM | – |

| Structure (SMILES) | EC50 | IC50 | outcome |
| --- | --- | --- | --- |
| CC1=CC2c3c(O)cc(-c4cc5ccc(O)cc5o4)cc3OC3(c4ccc(O)c5c4OC(C)(C)C=C5)Oc4cc(O)ccc4[C@H](C1)C23 (some centres not stated) | > 20.9 µM | 3.72 µM | – |
| Nc1nc(=S)[nH]c2n[nH]nc12 | > 200 µM | > 200 µM | – |
| Brc1ccc(-c2ccc(-c3ccc(-c4ccc(Br)s4)s3)s2)s1 | > 200 µM | > 200 µM | – |
| CCN1CCC2(CC1)OC(c1ccccc1)C(c1ccccc1)O2 (configuration not stated) | > 200 µM | 112 µM | – |
| CCCCCCCCCCCCCC(=O)NCC(=O)NC(CC(N)=O)C(=O)NC(C)C(=O)NC(C)C(=O)NC(C)C(=O)NC(C)C(=O)NC(CCCCN)C(=O)NC(CCCCN)C(=O)NCC(=O)NC(Cc1ccc(O)cc1)C(N)=O (configuration not stated) (Myristoyl-GNAAAAKKGY-NH2; configuration not given here) | > 214 µM | > 214 µM | – |
| C[N+](C)=c1nc(N2CCOCC2)ss1 | – | – | inactive |
| COc1cc(N=Nc2ccccc2C(=O)[O-])cc(/C=N/NC(=S)Nc2ccc(C)cc2)c1[O-].[Cu+].[Cu+] | – | – | inactive |
| Oc1cccc2ccc(SSc3ccc4cccc(O)c4n3)nc12 | > 200 µM | 20.4 µM | – |
| COc1nc2ncn(C(C)=O)c2c(=O)n1C | – | – | inactive |
| COc1cc(/C=C/C=C2\CC/C(=C\C=C\c3ccc(O)c(OC)c3)C2=O)ccc1O | > 200 µM | 13.2 µM | – |
| CCCCCCCCCCCCCCCCCCOC(COP(=O)(O)OCC1CCC(n2ccc(NC(=O)CCCCCCCCCCCCCCC)nc2=O)O1)COP(=O)(O)OCC1OC(n2cc(C)c(=O)[nH]c2=O)CC1N=[N+]=[N-] (configuration not stated) | 0.871 µM | 50.1 µM | – |
| CN(/N=C\c1ccc2ccccc2c1)C1=NCCCN1 | > 200 µM | 10 µM | – |
| CC(C)C(NC(=O)CNC(=O)OC(C)(C)C)C(=O)OCc1ccccc1 (stereo not drawn) (Boc-Gly-[ξV]-OBn) | > 200 µM | 148 µM | – |
| O=c1cc(O)nc2nc(-c3ccccc3)c(-c3ccccc3)nn12 | > 81.3 µM | > 81.3 µM | – |
| CC(C)OC1OC(CO)C(O)CC1n1cc(F)c(=O)[nH]c1=O (configuration not stated) | > 200 µM | 24.5 µM | – |
| C/C(=N\NS(=O)(=O)c1ccc(C)cc1)c1ccc[n+]([O-])n1 | – | – | inactive |
| NC(N)=N/N=C\CC(O)CO (configuration not stated) | > 200 µM | > 200 µM | – |
| Oc1ccccc1-c1nnc2n1N=C(c1ccc(-c3ccccc3)cc1)CS2 | > 200 µM | 15.5 µM | – |
| CCCCCCC(=O)C/C(=N/NC(N)=S)C(=O)NC1C2CC3CC(C2)CC1C3 (configuration not stated) | > 219 µM | > 219 µM | – |
| NCCCCC(NC(=O)OCc1ccccc1)C(=O)NCC(N)=O (configuration not stated) (HELM PEPTIDE1{[O=C(OCc1ccccc1)[*:2]].[NCCCCC(N[*:1])C(=O)[*:2]].G.[am]}$$$$V2.0) | > 200 µM | > 200 µM | – |
| COc1cc(NC(=O)c2ccc(NC(=O)c3ccc(N)cc3)cc2)c(OC)cc1N=Nc1ccc(N=Nc2ccc3cc(S(=O)(=O)O)cc(S(=O)(=O)O)c3c2)c(C)c1 | 19.5 µM | > 100 µM | – |
| CCS1=C(C(C)=O)C(=O)O[C@H](C)C1 (some centres not stated) | > 1230 µM | > 1230 µM | – |
| COc1ccc(C(=O)N2c3ccccc3N(C)n3cccc3C2CC(=O)O)cc1 (configuration not stated) | > 646 µM | 234 µM | – |
| COC(=O)C1(Cc2ccccc2C)Cc2ccc(C)cc2C1=O (configuration not stated) | > 200 µM | 57.5 µM | – |
| CC(C)c1cccc(C(C)C)c1O | > 200 µM | > 200 µM | – |
| C=C1c2c(Cl)ccc(O)c2C(O)=C2C(=O)C3(O)C(O)=C(C(N)=O)C(=O)C(N(C)C)C3C(O)C12 (configuration not stated) | > 200 µM | 11 µM | – |
